Experimental findings from US20040265979A1, “Novel macrophage foam cell formation inhibitor fka-25 and process for producing the same” (priority 2004, published 2004) are described below.

The structures appear in SMILES notation.

Data set [1] in a line: Physico-chemical properties: solubility in solvents, acidity/basicity. In kind it is physicochemical. From the text: Physico-chemical properties of FKA-25 substance of the present invention are as follows.
The test system of data set [2] is Macrophages isolated from mice peritoneum. Put plainly: Formation of cholesteryl ester and lipid droplet in mouse intraperitoneal macrophages ([1-14C]oleic acid incorporation, TLC). It is filed as cell-based. To be noted: Macrophage, mouse peritoneal macrophages, liposome + [1-14C]oleic acid. The source says:
Inhibitory action of FKA-25 substance of the present invention against intraperitoneal formation of cholesteryl ester and lipid droplet in mice is explained as follows.
Formation of cholesteryl ester and lipid droplet in mice in the intraperitoneal macrophage was examined according to the method of Namatame et al. (J. Biochem. 125, 319-327, 1999).
Macrophages isolated from mice peritoneum were suspended in Dulbecco modified Eagle's medium containing 6.8% lipoprotein deficient serum (6.8% LPDS-DMEM) 2.0×10^6 cells/ml, and plated each 0.25 ml into 48 well microplate (Corning Inc.) or slide chamber (Nunc Inc.).
The plate was incubated in 5% carbon dioxide incubator at 37° C. for 2 hours, then cells without attachment were removed by washing with Hank's solution. After washing, cells were incubated with 6.8% LPDS-DMEM for 1 hour, and FKA-25 substance (2.5 μl methanol), liposome (a composition consisting of phosphatidylcholine/phosphatidylserine/dicetylphosphate/cholesterol=10:10:2:15 (n mol) in 0.3 M glucose 10 μl) and [1-^14C]oleic acid (5 μl, 0.05 μCi, 1 nmol) were added, then incubated for 14 hours.
Cultured supernatant was removed off and intracellular neutral lipid was extracted twice by adding hexane 0.6 ml and isopropanol 0.4 ml. […] The separated [^14C]cholesteryl oleate and [^14C]triacylglycerol were quantitatively measured by using radio scanner (Ambis Inc., the U.S.). […]

What is called inhibition is the relative decrease from the control value, in per cent. Broadly, the IC50 is the point on the concentration scale where inhibition reaches its midpoint. In the case of `CC(C)=CCc1c(C(O)C2OC2(C)C)ccc2[nH]c3c(c12)CC1CCC2(O)C(C)(C)C(=O)CCC2(C)C31C` (centres unmarked) [FKA-25 substance], the “Differentiation from acidity, neutrality and basicity” value in data set [1] is reported as “weak basic substance”. Also, the Solubility in solvents result is reported as “Soluble” in data set [1] (in methanol, acetone, chloroform and ethyl acetate); “slightly soluble” in data set [1] (in water and hexane). Besides, the inhibition at 3.2 µM in data set [2] (at 3.2 μM, 14 hours, read-out: inhibition of the formation of triacylglycerol) is approximately 50%. Further, in data set [2] (incubated for 14 hours, read-out: IC50, inhibition of the formation of [14C]cholesteryl oleate), the IC50 was found to be 4 µM.
